Reference: patent publication US10005817B2, “Peptide pharmaceuticals” (EUMEDERIS PHARMACEUTICALS, INC., priority 2012, dated 2018)
“Also recorded” adds a separate entry of the source. Non-standard residues stand in square brackets, D forms with d. Residues, ends and D or L forms follow the SMILES beside them. *: point of attachment. GlcA(β-D,1-O-dodecyl) = CCCCCCCCCCCCO[C@@H]1O[C@H](C(=O)*)[C@@H](O)[C@H](O)[C@H]1O; GlcA(β1-O-octyl) = CCCCCCCCO[C@@H]1O[C@H](C(=O)*)[C@@H](O)[C@H](O)[C@H]1O; βGlcA(1-OMe) = CO[C@@H]1O[C@H](C(=O)*)[C@@H](O)[C@H](O)[C@H]1O; Phe(2,4,6-Me3) = Cc1cc(C)c(C[C@H](N)C(=O)O)c(C)c1; Dmt = Cc1cc(O)cc(C)c1C[C@H](N)C(=O)O; hArg = N=C(N)NCCCC[C@H](N)C(=O)O; Tic = O=C(O)[C@@H]1Cc2ccccc2CN1; Nle = CCCC[C@H](N)C(=O)O; Ac5c = NC1(C(=O)O)CCCC1; Aib = CC(C)(N)C(=O)O

What was measured:
PTH receptor (PTHR1) [1] = target: T1, PTH receptor (PTHR1) (Homo sapiens, UniProt Q03431); assay: PTH1 cellular assay, cAMP, agonist mode (SaOS2 cells, Cerep); type: cell-based
T1 construct: Cerep SA
T1 sequence (Q03431 27-593): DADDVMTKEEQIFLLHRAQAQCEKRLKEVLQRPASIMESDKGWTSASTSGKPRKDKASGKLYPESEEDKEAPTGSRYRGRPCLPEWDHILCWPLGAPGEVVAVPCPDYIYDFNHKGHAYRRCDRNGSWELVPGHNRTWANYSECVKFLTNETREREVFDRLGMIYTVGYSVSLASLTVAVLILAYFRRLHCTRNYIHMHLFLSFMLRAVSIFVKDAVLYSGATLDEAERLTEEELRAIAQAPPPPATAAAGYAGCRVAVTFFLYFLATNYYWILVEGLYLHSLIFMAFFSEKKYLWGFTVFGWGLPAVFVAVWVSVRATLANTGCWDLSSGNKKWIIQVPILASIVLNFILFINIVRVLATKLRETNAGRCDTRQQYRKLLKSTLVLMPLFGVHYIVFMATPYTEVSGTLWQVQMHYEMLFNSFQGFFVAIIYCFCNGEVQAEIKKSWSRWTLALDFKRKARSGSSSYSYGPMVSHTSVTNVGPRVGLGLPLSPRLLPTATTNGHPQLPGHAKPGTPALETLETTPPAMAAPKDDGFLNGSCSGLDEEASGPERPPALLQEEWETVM
Protocol: Compounds were weighed precisely in an amount of approximately 1 mg and assayed in standard cellular assays (cerep SA). The readout is the amount of cAMP generated in the cells treated with the test compounds, in either agonist or antagonist mode.
Compounds were dissolved in water and diluted in assay buffer containing 1% bovine serum albumin.

blood PO4 levels in rats = assay: blood phosphate levels in rats after single s.c. injection; type: in vivo, rat
Text: Following the method of Frolik, C.

blood Ca levels in rats = conditions: sc, 320 micrograms per kg (G4), at 5 hrs
Protocol: Each animal in a group was treated with a single sc injection of either vehicle or test agent.
Blood samples were collected via retro-orbital vein at 0.5, 1, 2, 4, and 5 hrs. post-injection and blood samples were stored on ice prior to centrifugation and testing for blood PO4 and Ca levels.

mu opioid receptor [2] = target: T2, mu opioid receptor (Homo sapiens, UniProt P35372); assay: mu opioid receptor cellular assay (MOP), agonist mode, cAMP readout (Cerep); type: cell-based
T2 construct: Cerep
Protocol: (§1) Compounds were weighed precisely in an amount of approximately 2 mg and assayed in standard cellular assays by the contract research organization Cerep, Inc. (Pullman, Wash.) as executed at their subsidiary, Cerep SA (Le Bois l'Eveque, France). The readout is the amount of cAMP generated in the cells treated with the test compounds, in either agonist or antagonist mode. The assays used were the mu opioid receptor cellular assay (MOP in agonist and antagonist mode), the delta2 opioid receptor cellular assay (DOP in agonist and antagonist mode) and the kappa opioid receptor cellular assay (KOP in agonist and antagonist mode). The assays used are described in Wang, J. B., et al. (1994) FEBS Lett 338: 217-222, Law, P. Y. and Loh, H. H. (1993) Mol Pharmacol 43: 684-693, and Avidor-Reiss, T., et al. (1995) FEBS Lett 361: 70-74. The stimulant for the cells in the DOR antagonist assay was 3×10E-8M DPDPE, a well-accepted DOR literature standard.

mu opioid receptor [3] = target: T2, mu opioid receptor; assay: mu opioid receptor cellular assay (MOP), antagonist mode, cAMP readout (Cerep); type: cell-based
Protocol: as §1

[4] = in vivo; cited from earlier work
[5] = in the body; by s.c. injection; cited from earlier work
PTH receptor (PTHR1) [6] = target: T1, PTH receptor (PTHR1); assay: PTH1 cellular assay, antagonist mode with added PTHrP; type: cell-based; conditions: read-out: maximal effects in antagonist mode
Protocol: Compounds were weighed precisely in an amount of approximately 1 mg and assayed in standard cellular assays (cerep SA). The readout is the amount of cAMP generated in the cells treated with the test compounds, in either agonist or antagonist mode. The PTH1 cellular assay used is described in Orloff, J. J., et al. (1992) Endocrinol 131: 1603-1611.
Modifications elsewhere in the molecule can be used to further modify the potency and character of the interaction of the drug candidates.

delta2 opioid receptor = target: T3, delta2 opioid receptor (Mus musculus, UniProt P32300); assay: delta2 opioid receptor cellular assay (DOP), antagonist mode vs DPDPE, cAMP readout; type: cell-based
T3 construct: Cerep
Protocol: as §1

[7] = test system: λ-carrageenan-induced inflammatory pain; assay: λ-carrageenan-induced inflammatory pain model, paw pressure threshold (Randall-Selitto); type: in vivo, rat; conditions: rats, i.pl., 24 h after carrageenan; beyond 30 min
Protocol: Adult male Sprague-Dawley rats were briefly anesthetized with isoflurane, and unilateral hind paw inflammatory pain was induced by injecting […] of λ-carrageenan. A λ-carrageenan injection into the left hind paw produces redness and edema. These alterations were observed within 6 h after induction of inflammation and peaked by 24 h. Further, the changes were confined to the carrageenan treated paw.
Changes in Paw Pressure Thresholds (PPT), a measurement of nociception and antinociception, was evaluated using a digital Randall-Selitto method. Briefly, animals are gently restrained and incremental pressure (maximum 350 g) was applied onto the dorsal surface of the hindpaw. The pressure required to elicit paw withdrawal, PPT, was determined. Paw-thickness, the indicator of inflammation, was measured using digital calipers. 24 h after induction of inflammation, rats received either saline, positive controls (DAMGO (8-32 μg) or fentanyl (0.4-0.8 μg)) or test peptides in 100 μl volume i.pl. The antinociception was measured at different time points (5 to 120 min or 5 hr to 24 hr) after drug administration. Baseline measures were taken before administering drug to confirm the development of inflammation and nociception.

T2 sequence (P35372 whole entry): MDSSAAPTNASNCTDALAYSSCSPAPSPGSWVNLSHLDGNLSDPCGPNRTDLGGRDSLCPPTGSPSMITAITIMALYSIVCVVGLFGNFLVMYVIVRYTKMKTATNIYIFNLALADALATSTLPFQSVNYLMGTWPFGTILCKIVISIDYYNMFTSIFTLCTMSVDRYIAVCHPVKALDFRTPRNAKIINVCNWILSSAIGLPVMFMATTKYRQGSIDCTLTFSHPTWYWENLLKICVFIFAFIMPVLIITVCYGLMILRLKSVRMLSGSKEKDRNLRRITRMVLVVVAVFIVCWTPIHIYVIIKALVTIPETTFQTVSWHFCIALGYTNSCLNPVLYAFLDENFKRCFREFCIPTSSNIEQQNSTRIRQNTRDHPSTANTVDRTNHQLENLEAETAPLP
T3 sequence (P32300 whole entry): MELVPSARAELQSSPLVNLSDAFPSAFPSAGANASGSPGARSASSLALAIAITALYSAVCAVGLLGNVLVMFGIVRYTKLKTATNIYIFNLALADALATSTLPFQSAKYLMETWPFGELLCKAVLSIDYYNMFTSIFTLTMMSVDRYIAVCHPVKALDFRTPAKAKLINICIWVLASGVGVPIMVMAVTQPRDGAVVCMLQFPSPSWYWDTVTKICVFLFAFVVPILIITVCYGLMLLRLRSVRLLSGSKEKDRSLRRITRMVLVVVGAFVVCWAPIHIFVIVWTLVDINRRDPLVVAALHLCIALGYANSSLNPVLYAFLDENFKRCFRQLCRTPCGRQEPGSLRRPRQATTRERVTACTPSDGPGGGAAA

CCCCCCCCCCCCO[C@@H]1O[C@H](C(=O)NCCCC[C@H](NC(=O)C(C)(C)NC(=O)[C@H](CCC(N)=O)NC(=O)[C@@H](NC(=O)[C@H](Cc2c[nH]c3ccccc23)NC(=O)[C@H](CCCNC(=N)N)NC(=O)[C@H](C)NC(=O)[C@H](CCCCNC(=N)N)NC(=O)[C@H](CCC(N)=O)NC(=O)[C@H](Cc2c[nH]cn2)NC(=O)[C@H](CCCC)NC(=O)[C@H](CC(C)C)NC(=O)[C@H](CCC(N)=O)NC(=O)[C@@H](NC(=O)[C@H](CCC(=O)O)NC(=O)C(C)(C)NC(=O)[C@@H](NC(=O)C2(N)CCCC2)C(C)C)[C@@H](C)CC)[C@@H](C)CC)C(=O)NC(C)(C)C(N)=O)[C@@H](O)[C@H](O)[C@H]1O [EU-232, Ac5c1-Val2-Aib3-Glu4-Ile5-Gln6-Leu7-Nle8-His9-Gln10-hArg11-Ala12-Arg13-Trp14-Ile15-Gln16-Aib17-Lys(N-epsilon-1′-dodecylbeta-D-glucuronyl)18-Aib19-NH2] (H-[Ac5c]V[Aib]EIQL[Nle]HQ[hArg]ARWIQ[Aib]K(GlcA(β-D,1-O-dodecyl))[Aib]-NH2)
Characterization (PTH receptor (PTHR1) [1]): super-agonistic response; also recorded: super-agonistic activity; also recorded: agonist | EC50 (PTH receptor (PTHR1) [1]): 2.4 nM | Emax (PTH receptor (PTHR1) [1]; SAOS-2, read-out: Maximal response (% PTHrP)): 145% | Emax (PTH receptor (PTHR1) [1]; SAOS-2, read-out: maximal response): 125% | time point of maximal statistically significant effect on blood phosphate (blood PO4 levels in rats; sc, last time point in the assay): 5 h | blood PO4 levels (blood PO4 levels in rats; single sc injection, 80 mcg groups): transient but not statistically significant decrease | maximal decrease in blood PO4 levels from time 0 hr. level (blood PO4 levels in rats; single sc injection, 5 hr. time point, dose not named in the sentence (320 group)): 25-35% | blood calcium levels (blood Ca levels in rats): no elevation

CCCCCCCCCCCCO[C@@H]1O[C@H](C(=O)NCCCC[C@H](NC(=O)[C@H](Cc2c(C)cc(C)cc2C)NC(=O)[C@@H]2CCCN2C(=O)[C@@H](N)Cc2c(C)cc(O)cc2C)C(N)=O)[C@@H](O)[C@H](O)[C@H]1O [EU-A103, Dmt-Pro-Tmp-Lys(C12-glucuronyl)-NH2] (H-[Dmt]P[Phe(2,4,6-Me3)]K(GlcA(β-D,1-O-dodecyl))-NH2)
Characterization (MOP) (mu opioid receptor [2]): pure antagonist | IC50 (mu opioid receptor [3]): 86 nM

CC[C@H](C)[C@H](NC(=O)[C@H](CCC(=O)O)NC(=O)[C@H](CO)NC(=O)[C@@H](NC(=O)[C@@H](N)CO)C(C)C)C(=O)N[C@@H](CCC(N)=O)C(=O)N[C@@H](CC(C)C)C(=O)N[C@@H](CCSC)C(=O)N[C@@H](Cc1cnc[nH]1)C(=O)N[C@@H](CC(N)=O)C(=O)N[C@@H](CC(C)C)C(=O)NCC(=O)N[C@@H](CCCCN)C(=O)N[C@@H](Cc1cnc[nH]1)C(=O)N[C@@H](CC(C)C)C(=O)N[C@@H](CC(N)=O)C(=O)N[C@@H](CO)C(=O)N[C@@H](CCSC)C(=O)N[C@@H](CCC(=O)O)C(=O)N[C@@H](CCCN=C(N)N)C(=O)N[C@H](C(=O)N[C@@H](CCC(=O)O)C(=O)N[C@@H](Cc1c[nH]c2ccccc12)C(=O)N[C@@H](CC(C)C)C(=O)N[C@@H](CCCN=C(N)N)C(=O)N[C@@H](CCCCN)C(=O)N[C@@H](CCCCN)C(=O)N[C@@H](CC(C)C)C(=O)N[C@@H](CCC(N)=O)C(=O)N[C@@H](CC(=O)O)C(=O)N[C@H](C(=O)N[C@@H](Cc1cnc[nH]1)C(=O)N[C@@H](CC(N)=O)C(=O)N[C@@H](Cc1ccccc1)C(=O)O)C(C)C)C(C)C [Teriparatide]
half life [4]: 19 min

CC[C@H](C)[C@H](NC(=O)[C@H](CCC(=O)O)NC(=O)[C@H](CO)NC(=O)[C@@H](NC(=O)[C@@H](N)CO)C(C)C)C(=O)N[C@@H](CCC(N)=O)C(=O)N[C@@H](CC(C)C)C(=O)N[C@@H](CCSC)C(=O)N[C@@H](Cc1cnc[nH]1)C(=O)N[C@@H](CC(N)=O)C(=O)N[C@@H](CC(C)C)C(=O)NCC(=O)N[C@@H](CCCCN)C(=O)N[C@@H](Cc1cnc[nH]1)C(=O)N[C@@H](CC(C)C)C(=O)N[C@@H](CC(N)=O)C(=O)N[C@@H](CO)C(=O)N[C@@H](CCSC)C(=O)N[C@@H](CCC(=O)O)C(=O)N[C@@H](CCCN=C(N)N)C(=O)N[C@H](C(=O)N[C@@H](CCC(=O)O)C(=O)N[C@@H](Cc1c[nH]c2ccccc12)C(=O)N[C@@H](CC(C)C)C(=O)N[C@@H](CCCN=C(N)N)C(=O)N[C@@H](CCCCN)C(=O)N[C@@H](CCCCN)C(=O)N[C@@H](CC(C)C)C(=O)N[C@@H](CCC(N)=O)C(=O)N[C@@H](CC(=O)O)C(=O)N[C@H](C(=O)N[C@@H](Cc1cnc[nH]1)C(=O)N[C@@H](CC(N)=O)C(=O)N[C@@H](Cc1ccccc1)C(=O)O)C(C)C)C(C)C [PTH]
half-life [5]: 30 min

CCCCCCCCCCCCO[C@@H]1O[C@H](C(=O)NCCCC[C@H](NC(=O)[C@H](CCC(N)=O)NC(=O)[C@@H](NC(=O)[C@H](Cc2ccccc2)NC(=O)[C@H](CCCNC(=N)N)NC(=O)[C@H](C)NC(=O)[C@H](CCCCNC(=N)N)NC(=O)[C@H](CCC(N)=O)NC(=O)[C@H](Cc2c[nH]cn2)NC(=O)[C@H](CCCC)NC(=O)[C@H](CC(C)C)NC(=O)[C@H](CCC(N)=O)NC(=O)[C@@H](NC(=O)[C@H](CCC(=O)O)NC(=O)C(C)(C)NC(=O)[C@@H](NC(=O)C2(N)CCCC2)C(C)C)[C@@H](C)CC)[C@@H](C)CC)C(N)=O)[C@@H](O)[C@H](O)[C@H]1O [EU-203] (H-[Ac5c]V[Aib]EIQL[Nle]HQ[hArg]ARFIQK(GlcA(β-D,1-O-dodecyl))-NH2; N-terminus assumed)
Emax (PTH receptor (PTHR1) [6]): 146%

CO[C@@H]1O[C@H](C(=O)NCCCC[C@H](NC(=O)[C@H](Cc2ccccc2)NC(=O)[C@@H]2Cc3ccccc3CN2C(=O)[C@@H](N)Cc2c(C)cc(O)cc2C)C(N)=O)[C@@H](O)[C@H](O)[C@H]1O [EU-A178, 2′,6′-dimethyl-L-tyrosyl-L-1,2,3,4-tetrahydroisoquinoline-3-carbonyl-L-phenylalanyl-Nε-(1′-methyl β-D-glucuronyl)-L-lysyl-amide] (H-[Dmt][Tic]FK(βGlcA(1-OMe))-NH2)
Characterization (MOP) (mu opioid receptor [2]): full agonistic behavior; also recorded: Pure MOP Ag; | Characterization (DOP) (delta2 opioid receptor): pure antagonist; also recorded: pure DOP antag | Paw Pressure Thresholds (PPT) [7]: statistically significant increases in PPT

CCCCCCCCO[C@@H]1O[C@H](C(=O)NCCCC[C@H](NC(=O)[C@H](Cc2c(C)cc(C)cc2C)NC(=O)[C@@H]2CCCN2C(=O)[C@@H](N)Cc2c(C)cc(O)cc2C)C(N)=O)[C@@H](O)[C@H](O)[C@H]1O [EU-A102, 2′,6′-dimethyl-L-tyrosyl-prolyl-2′,4′,6′-trimethyl-L-phenylalanyl-Nε-(1′-octyl β-D-glucuronyl)-L-lysine amide] (H-[Dmt]P[Phe(2,4,6-Me3)]K(GlcA(β1-O-octyl))-NH2)
Characterization (MOP) (mu opioid receptor [2]): partial agonist | EC50 (mu opioid receptor [2]): 100 nM | IC50 (mu opioid receptor [3]): 100 nM
